We go through 21 compounds from patent US20240199635A1, “TETRAHYDROTHIENO PYRIDINE DERIVATIVES AS DDRS INHIBITORS” (CHIESI FARMACEUTICI S.P.A., priority 2021, published 2024).

One assay concerns the target DDR2 (Homo sapiens (Human), UniProt Q16832). The assay can be described thus: DDR2 binding assay (LanthaScreen Europium Kinase Binding assay). Conditions: potency class, read-out: Ki DDR2. How it is done:
(§1) DDR1 and DDR2 binding assays were performed using Life Technologies LanthaScreen™ Europium Kinase Binding assay. The compounds were incubated with 5 nM DDR1 (Carna Biosciences) or 5 nM DDR2 (Life Technologies) for 1 hour at room temperature in white 384-well OptiPlate (PerkinElmer), containing 20 nM or 10 nM Kinase Tracer 178 respectively and 2 nM Europium labelled anti-GST antibody (Life Technologies) in assay buffer (50 mM HEPES pH 7.5, 10 mM MgCl2, 1 mM EGTA and 0.01% BRIJ35).
(§2) The ratio of fluorescence emission 665 nm/615 nm after excitation at 340 nm was obtained using the Tecan Spark 20M plate reader. IC50 values were determined in GraphPad Prism 7.0 software, using 4 parameter model: log(inhibitor) vs. response. IC50 values were converted in Ki using the Cheng-Prusoff equation (Ki=IC50/(1+[Tracer]/Kd).

Assay [1] addresses T1, DDR1 (Homo sapiens (Human), UniProt Q08345). Put plainly: DDR1 cell based assay (PathHunter U2OS DDR1 assay). Conditions: U2OS-DDR1 cells, Type II Collagen stimulation, potency class. How it is done:
The inhibition of DDR1 receptor activation by compounds was evaluated by PathHunter® U2OS DDR1 assay (Eurofins DiscoverX), according to the manufacturer's instructions. Briefly, U2OS-DDR1 cells were seeded in white 384-well plates at a density of 5000 cells/well and incubated for 2 hours at 37° C. and 5% CO2. Cells were then treated with compounds at different concentrations and incubated for 30 minutes, before stimulation with bovine Type II Collagen 20 μg/ml and incubation overnight at 37° C. and 5% CO2. PathHunter Detection Reagents were prepared according to the protocol provided by DiscoverX and 20 μl/well of this mix were added to each well. After incubating the plates for 1 hour at room temperature in the dark, luminescence signal was acquired with a plate reader. Raw data were normalized to vehicle control (0% for normalization) and positive control (100% for normalization; cells treated with 20 μg/ml collagen II) and IC50 parameters were calculated in GraphPad Prism 8.0 software, using sigmoidal dose-response curve fitting with variable slope.

The target in assay [2] is T1, DDR1. Put plainly: DDR1 binding assay (LanthaScreen Europium Kinase Binding assay). Conditions: potency class, read-out: Ki DDR1. The procedure: as §1, §2

DDR2, sequence (Q16832 22-855): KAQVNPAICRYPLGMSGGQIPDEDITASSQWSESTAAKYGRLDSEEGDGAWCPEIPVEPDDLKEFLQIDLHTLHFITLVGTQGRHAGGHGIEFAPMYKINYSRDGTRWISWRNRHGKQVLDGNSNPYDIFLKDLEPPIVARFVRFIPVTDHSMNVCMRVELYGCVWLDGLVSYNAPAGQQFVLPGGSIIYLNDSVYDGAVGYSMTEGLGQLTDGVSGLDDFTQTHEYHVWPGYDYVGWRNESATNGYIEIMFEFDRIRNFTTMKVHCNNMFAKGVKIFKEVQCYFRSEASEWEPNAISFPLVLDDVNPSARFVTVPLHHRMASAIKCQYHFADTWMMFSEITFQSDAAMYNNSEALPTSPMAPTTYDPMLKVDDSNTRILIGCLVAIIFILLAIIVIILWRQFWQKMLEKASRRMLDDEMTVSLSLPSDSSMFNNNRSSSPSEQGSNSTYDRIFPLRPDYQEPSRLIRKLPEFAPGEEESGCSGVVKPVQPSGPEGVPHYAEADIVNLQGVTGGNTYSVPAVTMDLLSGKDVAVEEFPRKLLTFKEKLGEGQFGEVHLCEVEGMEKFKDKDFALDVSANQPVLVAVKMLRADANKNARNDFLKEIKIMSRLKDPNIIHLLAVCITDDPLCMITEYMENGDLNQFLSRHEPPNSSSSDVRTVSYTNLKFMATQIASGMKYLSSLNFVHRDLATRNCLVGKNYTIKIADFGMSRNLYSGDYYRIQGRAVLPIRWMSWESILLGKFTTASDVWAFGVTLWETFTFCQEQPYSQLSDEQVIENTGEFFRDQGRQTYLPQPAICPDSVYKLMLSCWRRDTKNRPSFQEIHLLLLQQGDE
T1 sequence (Q08345 19-913): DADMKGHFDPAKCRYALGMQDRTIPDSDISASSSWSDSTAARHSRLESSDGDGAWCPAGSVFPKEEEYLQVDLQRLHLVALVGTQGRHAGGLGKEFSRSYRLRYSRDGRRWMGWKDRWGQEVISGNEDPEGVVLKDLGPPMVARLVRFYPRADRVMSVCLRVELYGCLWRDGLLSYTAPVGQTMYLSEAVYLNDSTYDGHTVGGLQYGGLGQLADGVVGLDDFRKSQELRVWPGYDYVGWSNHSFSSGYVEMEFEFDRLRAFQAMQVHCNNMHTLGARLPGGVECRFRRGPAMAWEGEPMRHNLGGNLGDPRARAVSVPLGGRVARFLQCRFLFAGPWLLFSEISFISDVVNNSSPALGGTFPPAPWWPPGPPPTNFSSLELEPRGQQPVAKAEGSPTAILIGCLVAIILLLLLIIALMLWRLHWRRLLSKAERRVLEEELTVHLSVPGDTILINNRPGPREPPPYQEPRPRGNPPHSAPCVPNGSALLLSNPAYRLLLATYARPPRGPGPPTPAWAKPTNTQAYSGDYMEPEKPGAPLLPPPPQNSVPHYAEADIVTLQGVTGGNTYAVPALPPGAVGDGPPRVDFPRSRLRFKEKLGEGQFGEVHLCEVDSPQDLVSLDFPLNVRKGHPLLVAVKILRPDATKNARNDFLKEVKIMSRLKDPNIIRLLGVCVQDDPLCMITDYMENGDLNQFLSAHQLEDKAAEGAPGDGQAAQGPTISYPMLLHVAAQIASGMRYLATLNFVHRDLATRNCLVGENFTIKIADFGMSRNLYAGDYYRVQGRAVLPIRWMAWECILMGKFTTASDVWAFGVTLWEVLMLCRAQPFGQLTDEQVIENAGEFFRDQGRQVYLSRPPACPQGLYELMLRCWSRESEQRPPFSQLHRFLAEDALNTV

For the compound `O=C(Nc1cccc(C(F)(F)F)c1)c1csc2c1CCN(Cc1cccnc1)C2` [Example 25, 6-(pyridin-3-ylmethyl)-N-(3-(trifluoromethyl)phenyl)-4,5,6,7-tetrahydrothieno[2,3-c]pyridine-3-carboxamide], the inhibitory constant (Ki) at DDR2 and at DDR1 [2] was less than 25 nM in each case. The IC50 on DDR1 [1] lay within 25 to 50 nM.
`Cn1nc(C(C)(C)C)cc1NC(=O)c1csc2c1CCN(Cc1cnc(N)nc1)C2` [Example 26, 6-((2-aminopyrimidin-5-yl)methyl)-N-(3-(tert-butyl)-1-methyl-1H-pyrazol-5-yl)-4,5,6,7-tetrahydrothieno[2,3-c]pyridine-3-carboxamide]: the Ki is 25 to 50 nM on DDR2 and less than 25 nM at DDR1 [2]. In addition, the IC50 at DDR1 [1] was 25 to 50 nM.
In the case of `Nc1nccnc1CN1CCc2c(C(=O)Nc3cccc(C(F)(F)F)c3)csc2C1` [Example 27, 6-((3-aminopyrazin-2-yl)methyl)-N-(3-(trifluoromethyl)phenyl)-4,5,6,7-tetrahydrothieno[2,3-c]pyridine-3-carboxamide], the Ki on DDR2 and at DDR1 [2] was less than 25 nM in each case. In addition, the IC50 on DDR1 [1] is less than 25 nM.
For `Nc1ncc(CN2CCc3c(C(=O)Nc4cccc(C(F)(F)F)c4)csc3C2)cn1` [Example 28, 6-((2-aminopyrimidin-5-yl)methyl)-N-(3-(trifluoromethyl)phenyl)-4,5,6,7-tetrahydrothieno[2,3-c]pyridine-3-carboxamide], the Ki on DDR2 and at DDR1 [2] was less than 25 nM throughout. The IC50 against DDR1 [1] was less than 25 nM.
Turning to `CN1CCN(c2cncc(CN3CCc4c(C(=O)Nc5cccc(C(F)(F)F)c5)csc4C3)c2)CC1=O` [Example 29, 6-((5-(4-methyl-3-oxopiperazin-1-yl)pyridin-3-yl)methyl)-N-(3-(trifluoromethyl)phenyl)-4,5,6,7-tetrahydrothieno[2,3-c]pyridine-3-carboxamide], the Ki at DDR2 and on DDR1 [2] was less than 25 nM in each case. The IC50 on DDR1 [1] fell in the range of 50 to 80 nM.
Consider `O=C(Nc1cccc(C(F)(F)F)c1)c1csc2c1CCN(Cc1cncc(N3CCS(=O)(=O)CC3)c1)C2` [Example 30, 6-((5-(1,1-dioxidothiomorpholino)pyridin-3-yl)methyl)-N-(3-(trifluoromethyl)phenyl)-4,5,6,7-tetrahydrothieno[2,3-c]pyridine-3-carboxamide], for which the Ki at DDR2 and on DDR1 [2] was less than 25 nM throughout. This compound yielded an IC50 against DDR1 [1] of 50 to 80 nM.
For `COc1cncc(CN2CCc3c(C(=O)Nc4cncc(C(F)(F)F)c4)csc3C2)c1` [Example 32, 6-((5-methoxypyridin-3-yl)methyl)-N-(5-(trifluoromethyl)pyridin-3-yl)-4,5,6,7-tetrahydrothieno[2,3-c]pyridine-3-carboxamide], the Ki on DDR2 and on DDR1 [2] was less than 25 nM in each case. For the same compound, the IC50 against DDR1 [1] was less than 25 nM.
Consider `O=C(Nc1cncc(C(F)(F)F)c1)c1csc2c1CCN(Cc1cncc(F)c1)C2` [Example 33, 6-((5-fluoropyridin-3-yl)methyl)-N-(5-(trifluoromethyl)pyridin-3-yl)-4,5,6,7-tetrahydrothieno[2,3-c]pyridine-3-carboxamide], for which the Ki on DDR2 and at DDR1 [2] was less than 25 nM throughout. The IC50 against DDR1 [1] lay in the range of 25 to 50 nM.
Turning to `O=C(Nc1cncc(C(F)(F)F)c1)c1csc2c1CCN(Cc1cccnc1)C2` [Example 34, 6-(pyridin-3-ylmethyl)-N-(5-(trifluoromethyl)pyridin-3-yl)-4,5,6,7-tetrahydrothieno[2,3-c]pyridine-3-carboxamide], the Ki on DDR2 and on DDR1 [2] was less than 25 nM throughout. This compound showed an IC50 against DDR1 [1] of 25 to 50 nM.
`Nc1ncc(CN2CCc3c(C(=O)Nc4cncc(C(F)(F)F)c4)csc3C2)cn1` [Example 35, 6-((2-aminopyrimidin-5-yl)methyl)-N-(5-(trifluoromethyl)pyridin-3-yl)-4,5,6,7-tetrahydrothieno[2,3-c]pyridine-3-carboxamide]: the Ki on DDR2 was 25 to 50 nM; on DDR1 [2] it was less than 25 nM. The IC50 at DDR1 [1] was in the range of 50 to 80 nM.
With `Nc1nccnc1CN1CCc2c(C(=O)Nc3cncc(C(F)(F)F)c3)csc2C1` [Example 36, 6-((3-aminopyrazin-2-yl)methyl)-N-(5-(trifluoromethyl)pyridin-3-yl)-4,5,6,7-tetrahydrothieno[2,3-c]pyridine-3-carboxamide], the Ki on DDR2 and at DDR1 [2] was less than 25 nM in each case. This compound gave an IC50 at DDR1 [1] of less than 25 nM.
In the case of `O=C(Nc1cc(F)cc(C(F)(F)F)c1)c1csc2c1CCN(Cc1cnc(NC3COC3)nc1)C2` [Example 37, N-[3-fluoro-5-(trifluoromethyl)phenyl]-6-[[2-(oxetan-3-ylamino)pyrimidin-5-yl]methyl]-5,7-dihydro-4H-thieno[2,3-c]pyridine-3-carboxamide], the Ki on DDR2 and at DDR1 [2] was less than 25 nM in each case. Moreover, on DDR1 [1], the IC50 is 25 to 50 nM.
Consider `CNc1ncc(CN2CCc3c(C(=O)Nc4cc(F)cc(C(F)(F)F)c4)csc3C2)cn1` [Example 40, N-(3-fluoro-5-(trifluoromethyl)phenyl)-6-((2-(methylamino)pyrimidin-5-yl)methyl)-4,5,6,7-tetrahydrothieno[2,3-c]pyridine-3-carboxamide], for which the Ki on DDR2 and at DDR1 [2] was less than 25 nM each time. For the same compound, the IC50 at DDR1 [1] was less than 25 nM.
On to `COCCNc1ncc(CN2CCc3c(C(=O)Nc4cc(F)cc(C(F)(F)F)c4)csc3C2)cn1` [Example 41, N-(3-fluoro-5-(trifluoromethyl)phenyl)-6-((2-((2-methoxyethyl)amino)pyrimidin-5-yl)methyl)-4,5,6,7-tetrahydrothieno[2,3-c]pyridine-3-carboxamide], for which the Ki at DDR2 and on DDR1 [2] was less than 25 nM throughout. The compound further yielded an IC50 at DDR1 [1] of 50 to 80 nM.
In the case of `Nc1ncccc1CN1CCc2c(C(=O)Nc3cc(F)cc(C(F)(F)F)c3)csc2C1` [Example 43, 6-((2-aminopyridin-3-yl)methyl)-N-(3-fluoro-5-(trifluoromethyl)phenyl)-4,5,6,7-tetrahydrothieno[2,3-c]pyridine-3-carboxamide], the inhibition constant Ki at DDR2 and on DDR1 [2] was less than 25 nM in each case. The 50% inhibitory concentration (IC50) on DDR1 [1] is less than 25 nM.
Consider `O=C(Nc1cc(F)cc(C(F)(F)F)c1)c1csc2c1CCN(Cc1cnc(NCCO)nc1)C2` [Example 44, N-(3-fluoro-5-(trifluoromethyl)phenyl)-6-((2-((2-hydroxyethyl)amino)pyrimidin-5-yl)methyl)-4,5,6,7-tetrahydrothieno[2,3-c]pyridine-3-carboxamide], for which the inhibition constant (Ki) at DDR2 and on DDR1 [2] was less than 25 nM each time. In addition, the half-inhibitory concentration (IC50) against DDR1 [1] was 25 to 50 nM.
Turning to `Cc1nc(N)ncc1CN1CCc2c(C(=O)Nc3cc(F)cc(C(F)(F)F)c3)csc2C1` [Example 47, 6-((2-amino-4-methylpyrimidin-5-yl)methyl)-N-(3-fluoro-5-(trifluoromethyl)phenyl)-4,5,6,7-tetrahydrothieno[2,3-c]pyridine-3-carboxamide], the Ki on DDR2 and on DDR1 [2] was less than 25 nM throughout. On DDR1 [1], this compound yielded an IC50 of 50 to 80 nM.
As for `CNc1ccc(CN2CCc3c(C(=O)Nc4cc(F)cc(C(F)(F)F)c4)csc3C2)cn1` [Example 48, N-[3-fluoro-5-(trifluoromethyl)phenyl]-6-[[6-(methylamino)-3-pyridyl]methyl]-5,7-dihydro-4H-thieno[2,3-c]pyridine-3-carboxamide], the Ki at DDR2 and on DDR1 [2] was less than 25 nM in each case. On DDR1 [1], this compound yielded an IC50 of less than 25 nM.
Turning to `Cn1cncc1C(=O)N1CCc2c(C(=O)Nc3cc(F)cc(C(F)(F)F)c3)csc2C1` [Example 49, N-(3-fluoro-5-(trifluoromethyl)phenyl)-6-(1-methyl-1H-imidazole-5-carbonyl)-4,5,6,7-tetrahydrothieno[2,3-c]pyridine-3-carboxamide], the Ki on DDR2 and at DDR1 [2] was less than 25 nM in each case. At DDR1 [1], this compound came in with an IC50 of less than 25 nM.
`CN(C)[C@@H]1CCN(Cc2cc(NC(=O)c3csc4c3CCN(Cc3cnc(N)nc3)C4)cc(C(F)(F)F)c2)C1` [Example 50, (R)-6-((2-aminopyrimidin-5-yl)methyl)-N-(3-((3-(dimethylamino)pyrrolidin-1-yl)methyl)-5-(trifluoromethyl)phenyl)-4,5,6,7-tetrahydrothieno[2,3-c]pyridine-3-carboxamide]: the Ki on DDR2 and on DDR1 [2] was less than 25 nM in each case. Besides, at DDR1 [1], the IC50 was 25 to 50 nM.
In the case of `CN(C)[C@@H]1CCN(Cc2cc(NC(=O)c3csc4c3CCN(Cc3cncnc3C(C)(C)F)C4)cc(C(F)(F)F)c2)C1` [Example 51, (R)-N-(3-((3-(dimethylamino)pyrrolidin-1-yl)methyl)-5-(trifluoromethyl)phenyl)-6-((4-(2-fluoropropan-2-yl)pyrimidin-5-yl)methyl)-4,5,6,7-tetrahydrothieno[2,3-c]pyridine-3-carboxamide], the Ki at DDR2 is 25 to 50 nM; on DDR1 [2] it was less than 25 nM. For the same compound, the IC50 against DDR1 [1] was 50 to 80 nM.
